# Read-outs that look alike come from different tables or passages of the source.
# Experiments:
# [1] = system: HBV (3TC-resistant virus: rtV204) in HepAD79 cells; assay: microbe, parasite or virus in culture; type: cell-based; conditions: for HepAD79 log10 inhibition at 10 μM: HBV DNA in supernatant; for activity against the mutant virus (in words): rtV204 mutant virus; for FI EC90 AD79/EC90 AD38: fold increase, EC90 HepAD79 over EC90 HepAD38
# Protocol: (§1) HepAD38 and HepAD79 cells were seeded at 5×10^4 cells/well in a 96-well plate in seeding medium (DMEM/F12+10% FBS, 50 μg/ml penicillin, 50 μg/ml streptomycin, 100 μg/ml kanamycin, 400 μg/ml G418, and 0.3 μg/ml tetracycline) and incubated for 2 days at 37° C. in a 5% CO2, humidified atmosphere. The seeding media was removed, and cells were washed 3 times with PBS. Cells were then incubated with 200 μL assay medium (DMEM/F12+10% FBS+P/S/K) containing either (i) no compound, (ii) test compound, or (iii) control drugs at 10 μM. After an additional 5-day (HepAD38) or 13-day incubation (HepAD79, with renewal of the culture media at day 7), the cell supernatant was collected and stored at −70° C. until HBV DNA was quantified.
# (§2) HBV DNA was extracted from supernatant using QiaAmp DNA blood Mini kit (Qiagen) and nucleic acids eluted in 200 μl Viral DNA was detected by quantitative PCR (Q-PCR). The TaqMan probe and primers were designed using the Primer Express software (Applied Biosystems) and cover highly conserved sequences complementary to the DNA sequences present in HBsAg. A total of 5 μl DNA was amplified using reagents and conditions as described by the manufacturer (Applied Biosystems).
# Subsequently, the time course of viral induction in HepAD79 cells over a 13-day incubation period was investigated.
# Therefore, the DNA extracted from the cell supernatant was also amplified by Q-PCR for the presence of cellular DNA (the rRNA gene).
# [2] = system: HBV (wild-type virus: rtM204) in HepAD38 cells; assay: Suppression of HBV production in HepAD38 cells, viral DNA in supernatant by Q-PCR; type: cell-based; conditions: for HepAD38 log10 inhibition at 10 μM: HBV DNA in supernatant; for EC90: read-out: HepAD38 EC90
# Excerpt: The HepAD38 (wild-type virus: rtM204) and HepAD79 (3TC-resistant virus: rtV204) (Stuyver L. J. et al. 2001, Hepatol., 33:751-757) cell lines replicate HBV under conditions that can be regulated with tetracycline (King R. W. et al. 2000, Methods in Molecular Medicine, Vol 24: Antiviral Methods and Protocols, 43-50 (eds: D. Kinchington & R. F. Schinazi), Humana Press Inc, Totowa, N.J.); Ladner, et al. 1997, Antimicrob. Agents Chemother., 41:1715-1720; Ladner S. K., et al. 1998a. Antivir. Chem. Chemother., 9:65-72; Ladner S. K., et al. 1998b. Antimicrob. Agents Chemother., 42:2128-31). In the presence of this drug, the cell supernatant is virtually free of viral DNA, but upon the removal of tetracycline from the culture medium, these cells secrete virus-like particle into the supernatant.
# as §1
# as §2, with “Biosystems). […]” for “Biosystems).”
# [3] = system: HepG2 cells (mitochondrial COXII DNA); conditions: for effect on mitochondrial DNA levels (in words): HepG2, up to 100 μM
# [4] = system: HepG2 cells; assay: Lactic acid production in HepG2 cells; type: cell-based, human; conditions: HepG2, up to 100 μM, 14 days
# Protocol: (§3) In addition, these compounds were also tested in the HepG2 cell line (14-day treatment, 100 μM) for their ability to reduce mitochondrial DNA levels (using a newly designed normalized Q-PCR protocol as described in Stuyver, L. J., et al. 2002, Antimicrob. Agents Chemother., 46:3854-3860) or lactic acid production.
# [5] = system: HepG2 cells; assay: Cell growth of HepG2 cells during 14-day treatment; type: cell-based, human; conditions: HepG2, up to 100 μM, 14 days
# Protocol: as §3
# [6] = HepAD79 cells, 13-day incubation
# [7] = HepAD79 cells, 13-day incubation, read-out: HepAD79 EC90
# [8] = HepAD38 cells, 5-day incubation
# [9] = HepAD38 cells, 5-day incubation, concentration reducing viral load by 90%, unit printed in text only
# [10] = Hepatitis B virus, 312 h, read-out: HepAD79 EC90, HepAD79 cells, 13-day incubation
# [11] = HepG2, 14-day treatment, 100 μM
Compound,"HepAD79 log10 inhibition at 10 μM [1, 6] [log10]","EC90 [1, 7] [nM]","HepAD38 log10 inhibition at 10 μM [2, 8] [log10]","EC90 [2, 9] [nM]","Average ΔCt ± s.d. MitCoxII ([3]; HepG2, 14-day treatment, 10 μM)","Average ΔCt ± s.d. rDNA ([3]; HepG2, 14-day treatment, 10 μM)","Average ΔΔCt ± s.d. MitCOXII-rDNA ([3]; HepG2, 14-day treatment, 10 μM)","Fold difference in COXII DNA levels normalized for rDNA (range) relative to control ([3]; HepG2, 14-day treatment, 10 μM)","Average ΔCt ± s.d. MitCoxII [3, 11]","Average ΔCt ± s.d. rDNA [3, 11]","Average ΔΔCt ± s.d. MitCOXII-rDNA [3, 11]","Fold difference in COXII DNA levels normalized for rDNA (range) relative to control [3, 11]",effect on mitochondrial DNA levels (in words) ([3]; 14 days),FI EC90 AD79/EC90 AD38 [1],effect on cell growth (in words) [5],further results
"Nc1nc(=O)n(C2CSC(CO)O2)cc1F (single isomer, unassigned; (-)) [(−)-FTC, (−)-enantiomer of 2-hydroxymethyl-5-(5-fluorocytosin-1-yl)-1,3-oxathiolane]",0.28,> 10000,1.59 ± 0.14,1160 ± 660,–,–,–,–,–,–,–,–,–,–,–,–
"Nc1ccn([C@@H]2CS[C@H](CO)O2)c(=O)n1 [3TC, (−)-enantiomer of 2-hydroxymethyl-5-(cytosin-1-yl)-1,3-oxathiolane]",0.67 ± 0.03,–,1.97 ± 0.28,–,–,–,–,–,–,–,–,–,–,–,–,"EC90 [1, 10]: > 10000 nM; EC90 ([2]; Hepatitis B virus, 120 h, HepAD38 cells, 5-day incubation, concentration reducing viral load by 90%): 50 nM"
Nc1ncnc2c1ncn2CCOCP(=O)(O)O [Adefovir],0.91 ± 0.11,–,0.72 ± 0.12,–,–,–,–,–,–,–,–,–,–,–,–,"EC90 [1, 10]: > 10000 nM; EC90 ([1]; read-out: HepAD79 EC90, HepAD79 cells, 13-day incubation): ~10000 nM; EC90 ([2]; Hepatitis B virus, HePAD38, 120 h): > 10000 nM"
Nc1ccn([C@H]2O[C@@H](CO)C=C2F)c(=O)n1 [L-2′F-D4C],0.33,> 10000,1.77 ± 0.13,740,−0.36 ± 0.02,−0.06 ± 0.27,−0.30 ± 0.28,1.23 (1.02-1.50),0.33 ± 0.21,0.53 ± 0.60,−0.20 ± 0.40,1.15 (0.87-1.52),–,–,–,activity against the mutant virus (in words) [1]: completely inactive; inhibition of wild type HBV (in words) [2]: potent inhibitors
Nc1nc(=O)n([C@H]2O[C@@H](CO)C=C2F)cc1F [L-2′F-D4FC],0.23,> 10000,1.91 ± 0.13,630,0.05 ± 0.07,−0.23 ± 0.20,0.28 ± 0.17,0.82 (0.73-0.92),0.83 ± 0.17,0.85 ± 0.51,−0.02 ± 0.64,1.01 (0.65-1.58),–,–,–,activity against the mutant virus (in words) [1]: completely inactive; inhibition of wild type HBV (in words) [2]: potent inhibitors
"Nc1ccn([C@@H]2C=C(F)[C@H](CO)O2)c(=O)n1 [L-3′F-D4C, β-L-3′-fluoro-2′,3′--didehydro-2′, 3′--dideoxycytadine]",1.65 ± 0.24,2300,2.68 ± 0.44,220 ± 150,0.39 ± 0.15,−0.11 ± 0.38,0.49 ± 0.51,0.71 (1.02-0.50),0.20 ± 0.20,−0.28 ± 0.14,0.48 ± 0.13,0.72 (0.79-0.65),no reductions in mitochondrial DNA levels,10.5,did not show any reduction in cell growth,"Average ΔCt ± s.d. MitCoxII ([3]; HepG2, 14-day treatment, 1 μM): 0.13 ± 0.16; Average ΔCt ± s.d. rDNA ([3]; HepG2, 14-day treatment, 1 μM): 0.08 ± 0.25; Average ΔΔCt ± s.d. MitCOXII-rDNA ([3]; HepG2, 14-day treatment, 1 μM): 0.05 ± 0.26; Fold difference in COXII DNA levels normalized for rDNA (range) relative to control ([3]; HepG2, 14-day treatment, 1 μM): 0.96 (1.16-0.80); total lactic acid production (in words) [4]: no increase in total lactic acid production; EC90 ([2]; HepAD38 cells, 5-day incubation, concentration reducing viral load by 90%, unit printed in text only, listed as L-3F-D4C): 250 nM"
"Nc1nc(=O)n([C@@H]2C=C(F)[C@H](CO)O2)cc1F [L-3′F-D4FC, β-L-3′-fluoro-2′,3′-didehydro-2′,3′-dideoxy-5-fluorocytidine]",1.56 ± 0.40,3100,2.8 ± 0.09,220 ± 140,0.23 ± 0.13,−0.10 ± 0.06,0.33 ± 0.10,0.80 (0.85-0.74),−0.52 ± 0.28,−0.94 ± 0.16,0.42 ± 0.13,0.75 (0.82-0.68),no reductions in mitochondrial DNA levels,14.1,did not show any reduction in cell growth,"Average ΔCt ± s.d. MitCoxII ([3]; HepG2, 14-day treatment, 1 μM): 0.00 ± 0.13; Average ΔCt ± s.d. rDNA ([3]; HepG2, 14-day treatment, 1 μM): −0.46 ± 0.06; Average ΔΔCt ± s.d. MitCOXII-rDNA ([3]; HepG2, 14-day treatment, 1 μM): 0.35 ± 0.01; Fold difference in COXII DNA levels normalized for rDNA (range) relative to control ([3]; HepG2, 14-day treatment, 1 μM): 0.78 (0.79-0.78); total lactic acid production (in words) [4]: no increase in total lactic acid production; EC90 ([2]; HepAD38 cells, 5-day incubation, concentration reducing viral load by 90%, unit printed in text only, listed as L-3F-D4FC): 250 nM"
Nc1nc(=O)n([C@@H]2CC[C@H](CO)O2)cc1F [L-FddC],0.02,> 10000,2.03,310,–,–,–,–,–,–,–,–,–,–,–,–
Nc1ccn([C@@H]2C=C[C@H](CO)O2)c(=O)n1 [L-d4C],1.54 ± 0.38,960,2.79 ± 0.08,60 ± 20,2.72 ± 0.37,3.96 ± 0.87,−1.24 ± 0.50,2.36 (1.67-3.35),6.82 ± 0.33,10.14 ± 0.77,−3.32 ± 0.75,9.99 (5.92-16.85),did not specifically affect the mitochondrial DNA levels,16,reduced the cell growth significantly,–
"Nc1ccn([C@H]2CC[C@@H](CO)O2)c(=O)n1 [ddC, 2′,3′-dideoxycytidine]",–,–,–,–,7.70 ± 0.08,0.92 ± 0.52,–,–,–,–,–,–,–,–,–,"Average ΔΔCt ± s.d. MitCOXII-rDNA ([3]; human, 14 days, 10 μM): 6.78 ± 0.56; Fold difference in COXII DNA levels normalized for rDNA (range) relative to control ([3]; human, 14 days, 10 μM): 0.01 (0.01-0.01)"

# — US20040157793A1, “Modified nucleosides as antiviral agents” (priority 2002, published 2004)
